Laboratory results taken from the NIST ThermoML archive (doi:10.1016/j.fluid.2006.12.011).

Test: xn = mol fraction of the nth substance listed
Conditions: Liquid, Vibrating tube method

C1CC[C@H]2CCCC[C@H]2C1 [cis-decahydronaphthalene] + C1CC[C@H]2CCCC[C@@H]2C1
mass density [kg/m3]
Conditions	x1 = 0.2	x1 = 0.35	x1 = 0.5	x1 = 0.65	x1 = 0.8	x1 = 1
303.15 K, 100 kPa	867.4	871.5	875.5	879.2	883.4	888.5
303.15 K, 5000 kPa	870.6	874.6	878.5	882.3	886.3	891.4
303.15 K, 10000 kPa	873.8	877.7	881.6	885.3	889.4	894.4
303.15 K, 15000 kPa	876.8	880.7	884.5	888.3	892.3	897.3
303.15 K, 20000 kPa	879.7	883.6	887.5	891.2	895.2	899.9
303.15 K, 25000 kPa	882.6	886.4	890.3	894	897.9	902.8
303.15 K, 30000 kPa	885.3	889.2	893	896.7	900.6	905.5
303.15 K, 35000 kPa	888	891.8	895.6	899.3	903.2	908
303.15 K, 40000 kPa	890.7	894.5	898.2	901.9	905.7	910.6
303.15 K, 45000 kPa	893.2	896.9	900.7	904.4	908.1	913
303.15 K, 50000 kPa	895.6	899.4	903	906.7	910.5	915.3
303.15 K, 55000 kPa	898	901.7	905.4	909	912.8	917.6
303.15 K, 60000 kPa	900.3	904	907.7	911.3	915.1	919.9
303.15 K, 65000 kPa	902.6	906.3	909.9	913.6	917.3	922.1
323.15 K, 100 kPa	852.1	856.3	860.2	864.2	868.1	873.2
323.15 K, 5000 kPa	855.9	859.9	863.7	867.6	871.6	876.5
323.15 K, 10000 kPa	859.4	863.3	867.1	870.9	874.9	879.8
323.15 K, 15000 kPa	862.7	866.6	870.4	874.2	878.1	883
323.15 K, 20000 kPa	865.9	869.8	873.5	877.3	881.2	886
323.15 K, 25000 kPa	869	872.9	876.5	880.3	884.2	889
323.15 K, 30000 kPa	872	875.8	879.4	883.2	887	891.8
